Like-named read-outs stand apart in the source and are kept apart here.
Experiments:
[1] = T1/2 Human Liver Microsomes; assay type: in vitro ADME
Source text: Some non-limiting illustrative examples are presented below in Table 3-1.

Des1 (h) = molecular target: T1, Des1 (h) (Homo sapiens, UniProt O15121); experiment: Measurement of Dihydroceramide Desaturase-1 (Des-1) activity in intact Jurkat cells labeled with DhCer-C6-NBD (HPLC); assay type: cell-based; conditions: for inhibition at 1 µM: Jurkat cells
T1 construct: endogenous in cells; host or cells: parental Jurkat cells
T1 sequence (O15121 1-323): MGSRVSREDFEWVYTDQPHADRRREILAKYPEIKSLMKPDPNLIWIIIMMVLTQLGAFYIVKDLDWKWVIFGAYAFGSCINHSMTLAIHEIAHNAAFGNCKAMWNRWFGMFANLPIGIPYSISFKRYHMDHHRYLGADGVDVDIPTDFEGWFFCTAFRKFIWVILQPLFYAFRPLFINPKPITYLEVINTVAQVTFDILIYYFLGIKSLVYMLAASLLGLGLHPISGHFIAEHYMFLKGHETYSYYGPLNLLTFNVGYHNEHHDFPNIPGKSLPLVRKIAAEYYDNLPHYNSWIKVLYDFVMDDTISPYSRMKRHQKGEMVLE
In short: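 Intact parental Jurkat cells in 0.5% serum medium were labelled with DhCer-C6-NBD; cells harvested at 500×g and ceramides extracted. NBD-labelled substrate and product resolved by C18 reverse-phase HPLC and quantified by fluorescence (ex 465/em 530 nm) as a measure of Des-1 activity.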

[2] = test system: Connective Tissue Growth Factor (CTGF) gene expression; experiment: Real time quantitative PCR in TGFβ-stimulated human hepatic stellate cells (LX2) to detect CTGF gene expression; assay type: cell-based; conditions: CTGF mRNA in TGFβ-stimulated LX2 cells vs vehicle control; for inhibition at 1 µM: LX-2, 1 μM; for inhibition at 10 µM: LX-2, 10 μM; for inhibition at 5 µM: LX-2, 5 μM
Experimental: Real Time Quantitative Polymerase Chain Reaction in Human Hepatic Stellate Cells (LX2) to Detect Connective Tissue Growth Factor (CTGF) Gene Expression The hepatic stellate cell line, LX2 was maintained in DMEM (LifeTechnologies) with 2% heat-inactivated FBS, 100U penicillin (LifeTechnologies), 0.1 mg/mL streptomycin (LifeTechnologies), and 2 mM L-glutamine (LifeTechnologies) at 37° C. with 5% CO2. Cells were seeded into 6-well plates (200,000 cells per well, 2 mLs media) and grown overnight. The cells were changed to 2 mLs 0.5% FBS media for 24 hours prior to treatment. Treatments were added in 2 mLs fresh 0.5% FBS media (vehicle control, long/mL TGFβ alone (R&D Systems), 10 ng/mL TGFβ+inhibitors) and incubated for 24 hours. […] RNA was extracted using Qiagen RNeasy kit (cat #74104), according to manufacturer's instructions. RNA (1 μg) was used to generate cDNA using the Qiagen Quantitect Reverse Transcription Kit (cat #205311), and stored at -20° C. cDNA was diluted (1:25 final) and combined with Sybr Green (Qiagen cat #204143), forward and reverse primers (50 ng each) and run on Real Time PCR Thermocycler machine (RG-6000, Corbett) with the following PCR conditions: Hold 1: 50° C. for 2 min; Hold 2: 95° C. for 15 min; Cycling: 45 cycles of: 95° C. for 30 sec, 58° C. for 21 sec, 72° C. for 15 sec, Hold 3: 72° C. for 30 sec, Melt: 72° C. to 99° C. GAPDH primers (Forward: [NT]; Reverse: [NT] primers (Forward: [NT]; Reverse: [NT] primers available from Origene, cat #HP205671)].

[3] = test system: TGF-β1-mediated αSMA expression; experiment: Fibroblast-to-Myofibroblast Transition (FMT) in human lung cells derived from IPF patient donors; assay type: cell-based; conditions: primary human bronchial fibroblasts from IPF donors; 8 concentrations up to 10 μM; FIG. 2
Experimental: Fibroblast-to-Myofibroblast Transition (FMT) in Human Lung Cells Derived from Idiopathic Pulmonary Fibrosis (IPF) Patient Donors
Lung-derived primary human bronchial fibroblasts (from IPF donors) were seeded at 3,000 cells per well in 96-well plates, and were grown over 5 days prior to treatment with the desired compounds (cell medium was refreshed at 48 h). Cells were then treated with 8 different concentrations of Compound 8 or 46, in semi-log dilutions starting from the top dosage of 10 μM (vehicle control: 0.1% DMSO; positive control: SB525334 and nintendanib). 1-hour post compound addition, the cells were stimulated with the addition of 1.25 ng/mL TGF-β1, and incubated for 72 hours. Cells were then fixed with 4% formaldehyde, then stained using […] and imaged via high-content analysis. The assay was conducted in biological duplicates. This in vitro FMT assay results were provided by Charles River Laboratories through a service agreement.

[4] = Table 3-1, comparison of W ring with and without nitrogen, read-out: Des1 IC50
[5] = intact Jurkat cells, given as concentration range, or <X / >X if measured at one concentration X only, read-out: Des1 (h) Jurkat IC50

Structure (SMILES)	IC50 (Des1 (h); [5]) [nM]	inhibition at 1 µM [2] [%]	inhibition at 10 µM [2] [%]	inhibition at 5 µM [2] [%]	other results
N=C(NO)c1ccc(Nc2ncc(-c3ccc(C(F)(F)F)cc3)o2)cc1	–	–	–	–	half-life [1]: 0.5 to 0.667 h; IC50 (Des1 (h); [4]): 800 to 1000 nM
O=C(NCC(O)CO)c1ccc(Nc2ncc(-c3ccc(C(F)(F)F)cc3)o2)cn1 (centres unmarked)	–	–	–	–	half-life [1]: 3.5 to 3.67 h; IC50 (Des1 (h); [4]): 1 to 10 nM
N/C(=N\O)c1ccc(Nc2ncc(-c3ccc(OC(F)(F)F)cc3)o2)cn1 [Compound 118, N′-Hydroxy-5-((5-(4-(trifluoromethoxy)phenyl)oxazol-2-yl)amino)picolinimidamide]	< 1000	50 to 60	70 to 80	–	–
N/C(=N\O)c1ccc(Nc2ncc(-c3ccc(C4CC4)cc3)o2)cn1 [Compound 120, 5-((5-(4-Cyclopropylphenyl)oxazol-2-yl)amino)-N′-hydroxypicolinimidamide]	> 1000	40 to 50	40 to 50	–	inhibition at 1 µM (Des1 (h)): 10%
N=C(NO)c1ccc(Nc2ncc(-c3ccc(C(F)(F)F)cc3)o2)cn1 [Example 8, 5-((5-[4-(Trifluoromethyl)phenyl]-1,3-oxazol-2-yl)amino)-N-hydroxy-pyridine-2-carboximidamide]	100 to 1000	–	–	> 90	inhibition of TGF-β1-mediated αSMA expression in IPF donors [3]: concentration-dependent inhibition
CN(O)C(=O)c1ccc(Nc2ncc(-c3ccc(C(F)(F)F)cc3)o2)cn1 [Example 20, N-Nydroxy-N-methyl-5-((5-(4-(trifluoromethyl)phenyl)oxazol-2-yl)amino)picolinamide]	< 100	10 to 20	70 to 80	–	–
O=c1cc(Nc2ncc(-c3ccc(C(F)(F)F)cc3)o2)ccn1O [Example 23, 1-(Hydroxy)-4-((5-(4-(trifluoromethyl)phenyl)oxazol-2-yl)amino)pyridin-2(1H)-one]	1 to 10	30 to 40	> 90	–	–
N/C(=N\O)c1ccc(Nc2ncn(-c3ccc(C(F)(F)F)cc3)n2)cn1 [Example 24, N′-Hydroxy-5-((1-(4-(trifluoromethyl)phenyl)-1H-1,2,4-triazol-3yl)amino)picolinimidamide]	10 to 100	–	–	50 to 60	–
Oc1cnc(Nc2ncc(-c3ccc(C(F)(F)F)cc3)o2)cc1O [Example 29, 6-((5-(4-(Trifluoromethyl)phenyl)oxazol-2-yl)amino)pyridine-3,4-diol]	< 1000	> 90	> 90	–	–
N/C(=N\O)c1nnc(Nc2ncc(-c3ccc(C(F)(F)F)cc3)o2)cc1O [Example 42, N′,4-Dihydroxy-6-((5-(4-(trifluoromethyl)phenyl)oxazol-2-yl)amino)pyridazine-3-carboximidamide]	1 to 10	10 to 20	40 to 50	–	–
N=C(NO)c1ccc(Nc2ncc(-c3ccc(C(F)(F)F)cc3)o2)cn1 [drawing 414]	–	–	–	–	half-life [1]: 1.5 to 1.67 h; IC50 (Des1 (h); [4]): 100 to 200 nM
N/C(=N\O)c1ccc(Nc2ncn(-c3ccc(C(F)(F)F)cc3)n2)cn1 [drawing 416]	–	–	–	–	half-life [1]: 2.83 to 3 h; IC50 (Des1 (h); [4]): 70 to 80 nM
N=C(NO)c1ccc(Nc2ncc(-c3ccc(C(F)(F)F)cn3)o2)cn1 [drawing 417]	–	–	–	–	half-life [1]: 3.17 to 3.33 h; IC50 (Des1 (h); [4]): 400 to 500 nM
N/C(=N\O)c1ccc(Nc2ncc(-c3ccc(C(F)(F)F)cc3)o2)nn1 [drawing 418]	–	–	–	–	half-life [1]: 2.5 to 2.83 h; IC50 (Des1 (h); [4]): 1 to 10 nM

Further lines, with some results ahead:

IC50 (Des1 (h); [5]) [nM]	Structure (SMILES)	inhibition at 1 µM [2] [%]	inhibition at 10 µM [2] [%]	inhibition at 5 µM [2] [%]	other results
100 to 1000	N/C(=N\O)c1cnc(Nc2ncc(-c3ccc(C(F)(F)F)cc3)o2)cn1 [Example 54, N′-Hydroxy-5-((5-(4-(trifluoromethyl)phenyl)oxazol-2-yl)amino)pyrazine-2-carboximidamide]	70 to 80	80 to 90	–	–
< 1000	N/C(=N\O)c1ncc(Nc2ncc(-c3ccc(C(F)(F)F)cc3)o2)cn1 [Example 55, N′-Hydroxy-5-((5-(4-(trifluoromethyl)phenyl)oxazol-2-yl)amino)pyrimidine-2-carboximidamide]	20 to 30	40 to 50	–	–
< 1000	N/C(=N\O)c1cnc(Nc2ncc(-c3ccc(C(F)(F)F)cn3)o2)cn1 [Example 57, N′-Hydroxy-5-((5-(5-(trifluoromethyl)pyridin-2-yl)oxazol-2-yl)amino)pyrazine-2-carboximidamide]	1 to 10	50 to 60	–	–
< 1000	N/C(=N/O)c1cnc(Nc2ncc(-c3ccc(OC(F)(F)F)cc3)o2)cn1 [Example 70, N′-Hydroxy-5-((5-(4-(trifluoromethoxy)phenyl)oxazol-2-yl)amino)pyrazine-2-carboximidamide]	–	–	> 90	–
< 1000	N/C(=N\O)c1ccc(Nc2cnn(-c3ccc(C(F)(F)F)cn3)c2)cn1 [Example 72, N′-Hydroxy-5-((1-(5-(trifluoromethyl)pyridin-2-yl)-1H-pyrazol-4-yl)amino)picolinimidamide]	40 to 50	–	50 to 60	–
< 1000	N/C(=N\O)c1ccc(Nc2ccn(-c3ccc(C(F)(F)F)cn3)n2)cn1 [Example 73, N′-Hydroxy-5-((1-(5-(trifluoromethyl)pyridin-2-yl)-1H-pyrazol-3-yl)amino)picolinimidamide]	–	–	> 90	–
< 1000	N/C(=N\O)c1ccc(Nc2ccn(-c3ccc(C(F)(F)F)cc3)n2)cn1 [Example 74, N′-Hydroxy-5-((1-(4-(trifluoromethyl)phenyl)-1H-pyrazol-3-yl)amino)picolinimidamide]	–	–	80 to 90	–
< 1000	N/C(=N/O)c1ccc(Nc2cc(-c3ccc(C(F)(F)F)cn3)no2)cn1 [Example 75, N′-Hydroxy-5-((3-(5-(trifluoromethyl)pyridin-2-yl)isoxazol-5-yl)amino)picolinimidamide]	–	–	> 90	–
< 1000	N/C(=N\O)c1ccc(Nc2nc(-c3ccc(C(F)(F)F)cc3)no2)cn1 [Example 82, N′-hydroxy-5-((3-(4-(trifluoromethyl)phenyl)-1,2,4-oxadiazol-5-yl)amino)picolinimidamide]	–	–	> 90	–
> 1000	N/C(=N\O)c1ccc(Nc2nc(-c3ccc(C(F)(F)F)cn3)no2)cn1 [Example 84, N′-Hydroxy-5-((3-(5-(trifluoromethyl)pyridin-2-yl)-1,2,4-oxadiazol-5-yl)amino)picolinimidamide]	–	–	80 to 90	inhibition at 1 µM (Des1 (h)): 45%
< 1000	N/C(=N\O)c1ccc(Nc2nc(-c3ccc(OC(F)(F)F)cc3)no2)cn1 [Example 86, N′-Hydroxy-5-((3-(4-(trifluoromethoxy)phenyl)-1,2,4-oxadiazol-5-yl)amino)picolinimidamide]	–	–	> 90	–
< 1000	N/C(=N\O)c1ccc(Nc2cc(-c3ccc(C(F)(F)F)cc3)no2)cn1 [Example 89, N′-hydroxy-5-((3-(4-(trifluoromethyl)phenyl)isoxazol-5-yl)amino)picolinimidamide]	–	–	> 90	–
